Reference: patent US20250135012A1, “DENDRIMER CONJUGATES OF SMALL MOLECULE BIOLOGICS FOR INTRACELLULAR DELIVERY” (The Johns Hopkins University, priority 2021, published 2025)
Non-standard residues stand in square brackets, D forms with d. Residues, ends and D or L forms follow the SMILES beside them. Cya = N[C@@H](CS(=O)(=O)O)C(=O)O

Assays:
[1] = test system: VEGF-A; assay: VEGF-A expression by VEGF stimulated endothelial cells; type: cell-based, human; conditions: co-incubated with VEGF-A
Experimental: (§1) Cells were treated with D-ALG1001 and ALG-1001 for 24 h before activation with VEGF for 5 minutes. […] Cells were lysed with TRIZOL® and processed as previously described for qPCR analysis.
In addition to examining pathway activation, the effects of D-ALG and ALG-1001 were also studied on VEGF-A expression by endothelial cells.

[2] = test system: HUVEC cells; assay: HUVEC vessel formation assay on Matrigel; type: cell-based, human; conditions: 1 mM
Experimental: 96 well plates were coated with 75 μL of […]® and left at room temperature for 15 minutes before placing into 37° C. incubators for an additional 30 minutes. D-ALG1001 was dissolved at twice the desired concentration and 50 μL of the drug solution was added to the wells. HUVEC cells were then added to each well at a density of 70,000 cells/cm^2. Live-cell images were taken at 12 h for analysis.
To find the effective dose in a physiologically relevant model, an in vitro model of blood vessel formation was utilized. HUVEC cells were treated with a gradient concentration of D-ALG and ALG-1001 for 24 h at three different magnitudes of doses. The cells were then seeded on […]® after which cells naturally migrate to form blood vessel-like tubule structures. The images were analyzed with Angiogenesis Analyzer plug-in on ImageJ to extract relevant metrics that measure the connectivity and integrity of tube networks (FIG. 16).

[3] = biological target: proteinase K (Parengyodontium album, UniProt P06873); assay: in vitro; conditions: proteinase K (isolated protease)
Sequence of proteinase K (P06873 106-384): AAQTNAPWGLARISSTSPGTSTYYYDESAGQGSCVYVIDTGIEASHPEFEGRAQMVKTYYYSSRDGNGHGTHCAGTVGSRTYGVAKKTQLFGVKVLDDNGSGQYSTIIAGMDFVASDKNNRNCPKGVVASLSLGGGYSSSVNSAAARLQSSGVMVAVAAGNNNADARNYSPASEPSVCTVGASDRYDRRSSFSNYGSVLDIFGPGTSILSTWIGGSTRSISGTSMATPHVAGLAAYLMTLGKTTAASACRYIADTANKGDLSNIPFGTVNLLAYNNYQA
Experimental: Proteinase K stock solution was purchased from ThermoFisher and used as is. […] The mixture was incubated at 37° C. and at set time points, 100 μL of the mixture was removed and analyzed through HPLC.

[4] = test system: p44/42 ERK; assay: Choroid total ERK and phospho-p44/42 ERK ELISA; type: in vivo, Brown Norway rats
Experimental: (§2) In brief, 500 μL of T-Per supplemented with PHOSSTOP® and proteinase inhibitor cocktail was added to tubes containing dissected choroid. A scoop of 1.6 mm steel homogenization beads was added to each sample and then placed in […]® LT (Qiagen) at an oscillation frequency of 50/s for 15 minutes. For qPCR, 200 μL of TRIZOL® was added to tubes containing choroid and a scoop of 1.6 mm steel homogenization beads was added. The samples were placed in […]® LT at an oscillation frequency of 50/s for 15 minutes.
To evaluate activation of FAK and ERK pathways, eyes were enucleated at set time points and the choroidal tissue dissected out. Tissues were submerged in a mixture of T-per, proteinase inhibitor, and PhosStop with stainless steel homogenization beads and homogenized to produce protein extracts. Total FAK, total ERK, p-FAK (Y397), and p-44/42 ERK ELISA kits were used to quantify the amount of total and phosphorylated proteins in FAK and ERK pathways. […] However, the level of total FAK protein in ALG-1001 treated animals was elevated at day 14.

[5] = test system: VEGF-A; assay: Choroid VEGF-A qPCR; type: in vivo, Brown Norway rats; conditions: 7 and 14 days
Experimental: as §2
(§3) 100 μL of chloroform was added to the Trizol suspension and the aqueous phase was separated with a centrifuge at 10K RPM at 4° C. for 15 minutes. 400 μL of 2-propanol was added to the aqueous solution and spun again to pellet the RNA. The RNA was washed with 70% ethanol solution, pelleted again, and re-suspended in DEPC (ultrapure treated to inactivated enzymes) water.
(§4) To convert RNA to complementary DNA, 2 μg of RNA was converted using a High-Capacity cDNA Reverse Transcription Kit (Applied Biosystems, Foster City, CA). Samples were analyzed using STEPONE PLUS® real-time PCR system (Applied Biosystems) with SYBR Green reagent (ThermoFisher Scientific). Relative expression was quantified with ΔΔCt calculations normalized to controls. Primers for GAPDH was obtained from Bio-Rad Laboratories (Hercules, CA). Primers were purchased from Integrated DNA Technologies (Coralville, IA). […]

[6] = test system: ERK1/2; assay: Western blot, ERK1/2 phosphorylation in VEGF stimulated HUVEC; type: cell-based, human; conditions: 1 mM on a peptide basis, vs VEGF stimulated controls
Experimental: as §1
Concentration of protein was determined with the BCA protein assay kit (Thermo Scientific, Rockford, IL). Equal amount of protein was denatured and resolved on 4-15% TGX gels (Bio-Rad, Hercules, CA). Gels were transferred to nitrocellulose membranes, blocked with 3% Bovine Serum Albumin (“BSA”) at RT for 1 h, and probed for GAPDH, FAK, pFAK, MAPK, and pMAPK at 4° C. overnight. Membranes were washed thrice before incubation with HRP-conjugated secondary antibodies followed by incubation with chemiluminescent substrate for visualization.
To elucidate the mechanism through which D-ALG and ALG-1001 influence angiogenic function, cells were pre-treated with D-ALG and ALG-1001 for 24 h. The cells were then stimulated with a high dose of exogenous VEGF for 5 min after which the samples were collected for western blotting. The samples were probed for expression of total FAK, phospho-FAK (Y397), ERK1/2, phospho-ERK1/2, and Cyclophilin B (CycB) with CycB acting as the internal control.

[7] = test system: CNV area; assay: Biodistribution after systemic administration, laser CNV model; type: in vivo, Brown Norway rats; conditions: systemic (intraperitoneal) administration, 150 μg
Experimental: For biodistribution studies, a dose of Cy5-D-ALG1001-Cy3 and ALG-1001-Cy3 at 150 μg/100 μL was administered to each animal intraperitoneally on the day of CNV induction (Day 0). Animals were sacrificed at 1-, 2-, 3-, and 4-day time points and enucleated.
After fixation, the posterior segment of the eye was dissected out and the retina separated from the choroid. Tissues stained with FITC-labeled isolectin (GS IB4) (Life Technologies, Eugene, OR) for blood vessels and monocytes. Eyes were mounted by introducing four radial relaxation cuts. Samples for biodistribution were imaged under a confocal 710 microscope (Carl Zeiss, Oberkochen, Germany). Samples for CNV quantification were imaged with an Axiovert phase contrast microscope. All images were processed with ImageJ.
Fluorescently labeled Cy3-ALG-1001 peptide and dual labeled Cy5-dendrimer-ALG-Cy3 were systemically injected on day 0 (same day as CNV induction) and choroidal tissues were collected at set time points. Confocal microscopy was used to monitor the presence of ALG-1001 peptide (Cy3), dendrimer carrier (Cy5), CNV formation (Isolectin), and macrophages (Iba1). […] In comparison, D-ALG was able to not only reach the CNV area within 24 h after systemic injection but also remain in the target area up to 4 days post administration from the co-localized presence of both Cy5 and Cy3 signals.

[8] = test system: IL1β; assay: Choroid IL1β qPCR; type: in vivo, Brown Norway rats; conditions: 7 and 14 days
Experimental: as §2, §3, §4

C[C@@H](O)[C@H](NC(=O)[C@H](CS(=O)(=O)O)NC(=O)CNC(=O)[C@H](CCCNC(=N)N)NC(=O)CN)C(=O)N1CCC[C@H]1C(=O)O [ALG-1001] (H-GRG[Cya]TP-OH; N-terminus and C-terminus assumed)
VEGF production compared to the control [1]: did not have statistically significant increases
tube formation [2]: increased disruption in tube formation
metabolised at 0.5 h, 2 mg/mL [3]: ~50%
metabolised at […], 2 mg/mL [3]: ~90%
total ERK ([4]; day 7): remained relatively constant
total ERK ([4]; day 14, vs untreated animals): slight reduction
phospho-p44/42 ERK ([4]; rat, in vivo): decrease of p44/42 ERK production
VEGF-A production (qPCR) [5]: lower VEGF-A production at 14 days only
reduction of phospho-ERK1/2 [6]: ~60%
time remaining in the CNV target area [7]: up to 2 days
IL1β expression (qPCR) [8]: only reduced at day 14
